In US6783985B1, “Gene disruption methodologies for drug target discovery” (Elitra Pharmaceuticals Inc., priority 2000, dated 2004):

Assays:
[1] = test system: S. cerevisiae bar-coded strains bearing heterozygous mutations in HIS3, TUB1, ALG7, and ERG11; settings: grown together in a mixed population; targets HIS3, TUB1, ALG7, ERG11 respectively; cited from earlier work
C. albicans = test: Sensitivity of C. albicans to selection antibiotics; format: cell-based, Candida albicans
Text: Several art-known methods are available to create a heterozygote mutant. In less preferred embodiments, auxotrophic markers, such as but not limited to CaURA3, CaHIS3, CaLEU2, or CaTRP1, could be used for gene disruption if desired. However, the preferred method of heterozygote construction in diploid fungi employs a genetically modified dominant selectable marker. C. albicans is sensitive to the nucleoside-like antibiotic streptothricin at a concentration of 200 micrograms per milliliter. The presence of the Escherichia coli SAT1 gene within C. albicans allows acetylation of the drug rendering it nontoxic and permitting the strain to grow in the presence of streptothricin at a concentration of 200 micrograms per milliliter. Expression of the SAT1 gene in C. albicans is made possible by engineering the gene so that its DNA sequence is altered to conform to the genetic code of this organism and by providing a CaACT1 promoter (Morschhauser et al. (1998) Mol. Gen. Genet. 257:412-420) and a CaPCK1 terminator sequence (Leuker et al. (1997) Gene 192: 235-40). This genetically modified marker is referred to as CaSAT1 which is the subject of a copending United States nonprovisional application, filed Feb. 16, 2001. […]

CaERG11 = settings: determined biochemically; cited from earlier work
CaERG11 GRACE strain = test: Target level variation whole cell assay, CaERG11 GRACE strain; format: cell-based, Candida albicans
Text: (§1) Moreover, these experiments clearly indicate how distinct levels of target gene products synthesized within the pathogen could be directly applied in whole cell assay based drug screens to identify novel antifungal compounds against those novel drug targets validated using the GRACE method.

[2] = test system: wild type (diploid) CaHIS3 strain, CaHIS3 heterozygote strain and tetracycline promoter-regulated CaHIS3 GRACE strain; test: Target level variation whole cell assay: 3-AT sensitivity of CaHIS3 strains; format: cell-based, Candida albicans; settings: for sensitivity of partially repressed (minimally expressing) CaHIS3 GRACE strain relative to heterozygous CaHIS3 strain: intermediate 3-AT concentration, threshold tetracycline (FIG. 6C, 6D)
Text: The data derived from these experiments clearly indicate that distinct levels of target gene products synthesized within the pathogen could be directly applied in whole cell assay based drug screens to identify novel antifungal compounds active against novel drug targets validated using the GRACE method.
3-AT is a competitive inhibitor of the enzyme encoded by CaHIS3, imidazoleglycerol phosphate dehydratase, and together serve as a model for a drug and drug target respectively. […] The phenotype observed is consistent with that expected in light of the predicted 7.5 fold overexpression of CaHIS3 determined by Northern bolt analysis (see FIG. 5). […] A third CaHIS3 expression level evaluated for differential sensitivity to 3-AT was produced by partial repression of the GRACE CaHIS3 strain using a threshold concentration of tetracycline 0.1% […].
as §1

CaALG7 GRACE strain = test: Target level variation whole cell assay, CaALG7 GRACE strain; format: cell-based, Candida albicans
Text: as §1

[3] = intermediate 3-AT concentration (FIG. 6B)

CCCCNC(=O)n1c(NC(=O)OC)nc2ccccc21 [benomyl]
sensitivity of the strain heterozygous for the compound's drug target versus other heterozygote bar-coded strains [1]: significantly greater sensitivity

CN(CC[C@H](N)CC(=O)N[C@H]1C=C[C@H](n2ccc(N)nc2=O)O[C@@H]1C(=O)O)C(=N)N [blasticidin]
sensitivity of C. albicans to the fungicidal compound (C. albicans): sensitive

OC(Cn1cncn1)(Cn1cncn1)c1ccc(F)cc1F [fluconazole]
mode of action, static or cidal (CaERG11): static
sensitivity of the strain heterozygous for the compound's drug target versus other heterozygote bar-coded strains [1]: significantly greater sensitivity
GRACE strain-specific phenotypes on increasing and decreasing expression of the drug target CaERG11 (CaERG11 GRACE strain): drug resistance and sensitivity phenotypes

Nc1nc[nH]n1 [3-AT, 3-aminotriazole]
sensitivity of the strain heterozygous for the compound's drug target versus other heterozygote bar-coded strains [1]: significantly greater sensitivity
phenotype of CaHIS3 GRACE strain overexpressing CaHIS3 (constitutive tetracycline promoter expression) ([2]; 3-AT concentrations that completely inhibit wild type and heterozygote (FIG. 6A)): resistance
growth of wild type and CaHIS3 heterozygote strains ([2]; inhibitory levels of 3-AT (FIG. 6A)): completely inhibit growth
effect on wild type and tetracycline promoter-based overproducing CaHIS3 strains [2, 3]: unable to effect
sensitivity of heterozygous CaHIS3 strain (haploinsufficient phenotype) [2, 3]: enhanced sensitivity
sensitivity of partially repressed (minimally expressing) CaHIS3 GRACE strain relative to heterozygous CaHIS3 strain [2]: enhanced drug sensitivity
sensitivity of partially repressed (minimally expressing) CaHIS3 GRACE strain relative to heterozygous CaHIS3 strain ([2]; listed as 3-aminotriazole): hypersensitivity

streptothricin
sensitivity of C. albicans to the antibiotic (C. albicans; streptothricin at 200 micrograms per milliliter): sensitive

tunicamycin
sensitivity of the strain heterozygous for the compound's drug target versus other heterozygote bar-coded strains [1]: significantly greater sensitivity
GRACE strain-specific phenotypes on increasing and decreasing expression of the drug target CaALG7 (CaALG7 GRACE strain): drug resistance and sensitivity phenotypes
